Experimental findings from ChEMBL document CHEMBL4000166, “Stachybotrysin, an Osteoclast Differentiation Inhibitor from the Marine-Derived Fungus Stachybotrys sp. KCB13F013” (J Nat Prod, 2016) are described below.

Activity calls are given as the source filed them. The calls are words filed in the database; no cut-off is given here.

The species entered for test [1] is Mus musculus. Briefly: Inhibition of M-CSF/RANKL-induced ERK phosphorylation in mouse BMMC at 5 ug/ml preincubated with M-CSF for 6 mins followed by RANKL addition measured after 5 mins by Western blot method. (In general: A western blot detects proteins with antibodies after separation by electrophoresis.)
In test [2] the target is T1, NF-kappa-B inhibitor alpha (Mus musculus) (UniProt Q9Z1E3).
T1 sequence (whole entry): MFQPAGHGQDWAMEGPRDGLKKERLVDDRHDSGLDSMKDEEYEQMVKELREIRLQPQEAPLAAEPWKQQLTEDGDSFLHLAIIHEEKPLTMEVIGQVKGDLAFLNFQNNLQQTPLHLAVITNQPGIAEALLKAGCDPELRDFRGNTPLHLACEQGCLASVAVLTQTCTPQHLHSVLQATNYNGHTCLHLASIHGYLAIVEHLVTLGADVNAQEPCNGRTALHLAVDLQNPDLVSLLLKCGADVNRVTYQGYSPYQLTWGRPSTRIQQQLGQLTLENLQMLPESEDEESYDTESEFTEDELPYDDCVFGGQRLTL
Description: Effect on IkappaBalpha phosphorylation in mouse BMMC at 5 ug/ml preincubated with M-CSF for 6 mins followed by RANKL addition measured after 5 to 30 mins by Western blot method.

The species entered for test [3] is Mus musculus. Briefly: Inhibition of M-CSF/RANKL-induced JNK phosphorylation in mouse BMMC at 5 ug/ml preincubated with M-CSF for 6 mins followed by RANKL addition measured after 5 mins by Western blot method.
Test [4] deals with BMMC. Briefly: Inhibition of M-CSF/RANKL-induced osteoclast differentiation in mouse BMMC after 4 days by TRAP staining method. The class given is functional, cell-based.
The target in test [5] is MAP kinase p38 (Mus musculus) (UniProt P47811+O08911+Q9WUI1+Q9Z1B7). Description: Inhibition of M-CSF/RANKL-induced p38 phosphorylation in mouse BMMC at 5 ug/ml preincubated with M-CSF for 6 mins followed by RANKL addition measured after 5 mins by Western blot method.
Test [6] relates to BMMC. Briefly: Inhibition of M-CSF/RANKL-induced osteoclast differentiation in mouse BMMC at 5 to 10 ug/ml after 4 days by TRAP staining method. The test is classed as functional, cell-based.

As for `CC(=O)/C=C/c1c(CO)cc(O)c2c1O[C@]1(C2)[C@H](C)CC[C@H]2C(C)(C)[C@H](O)CC[C@@]21C`, the inhibition entry (in the test listed under Mus musculus [1]; in the test listed under Mus musculus [3]; in test [5]) was “Active” in each case. Also, in test [2], the outcome was inactive. Also, the inhibition entry in the test with BMMC [4] was “Dose-dependent effect”.
On to `C[C@@H]1CC[C@H]2C(C)(C)[C@H](O)CC[C@]2(C)[C@@]12Cc1c(O)cc3c(c1O2)C(=O)OC3`, for which, in the test with BMMC [6], the inhibition result was “inactive”.
